# Measured values: ChEMBL document CHEMBL3639182, “Nitrogen containing heteroaryl compounds” (2014)
# Target: cAMP and cAMP-inhibited cGMP 3',5'-cyclic phosphodiesterase 10A (Homo sapiens, UniProt Q9Y233)
# Test: Scintillation Proximity Assay : PDE10 activity of the compounds of the present invention was determined using a Scintillation Proximity Assay (SPA)-based method similar to the one previously described (Fawcett, L. et al., Proc Natl Acad Sci USA (2000) 97(7):3702-3707). The human PDE10A full length assay was performed in 96-well micro titer plates. The reaction mixture of 50 μl contained 20 mM HEPES pH=7.5/10 mM MgCl2/0.05 mg/ml BSA (Sigma cat. # A-7906), 50 nM cGMP (Sigma, cat. # G6129) and 50 nM [3H]-cGMP (GE Healthcare, cat. # TRK392 S.A. 13.2 Ci/mmol), 3.75 ng/well PDE10A enzyme (Enzo Life Science, Lausen, Switzerland cat #SE-534) with or without a specific test compound.
# cAMP and cAMP-inhibited cGMP 3',5'-cyclic phosphodiesterase 10A, sequence (Q9Y233 whole entry): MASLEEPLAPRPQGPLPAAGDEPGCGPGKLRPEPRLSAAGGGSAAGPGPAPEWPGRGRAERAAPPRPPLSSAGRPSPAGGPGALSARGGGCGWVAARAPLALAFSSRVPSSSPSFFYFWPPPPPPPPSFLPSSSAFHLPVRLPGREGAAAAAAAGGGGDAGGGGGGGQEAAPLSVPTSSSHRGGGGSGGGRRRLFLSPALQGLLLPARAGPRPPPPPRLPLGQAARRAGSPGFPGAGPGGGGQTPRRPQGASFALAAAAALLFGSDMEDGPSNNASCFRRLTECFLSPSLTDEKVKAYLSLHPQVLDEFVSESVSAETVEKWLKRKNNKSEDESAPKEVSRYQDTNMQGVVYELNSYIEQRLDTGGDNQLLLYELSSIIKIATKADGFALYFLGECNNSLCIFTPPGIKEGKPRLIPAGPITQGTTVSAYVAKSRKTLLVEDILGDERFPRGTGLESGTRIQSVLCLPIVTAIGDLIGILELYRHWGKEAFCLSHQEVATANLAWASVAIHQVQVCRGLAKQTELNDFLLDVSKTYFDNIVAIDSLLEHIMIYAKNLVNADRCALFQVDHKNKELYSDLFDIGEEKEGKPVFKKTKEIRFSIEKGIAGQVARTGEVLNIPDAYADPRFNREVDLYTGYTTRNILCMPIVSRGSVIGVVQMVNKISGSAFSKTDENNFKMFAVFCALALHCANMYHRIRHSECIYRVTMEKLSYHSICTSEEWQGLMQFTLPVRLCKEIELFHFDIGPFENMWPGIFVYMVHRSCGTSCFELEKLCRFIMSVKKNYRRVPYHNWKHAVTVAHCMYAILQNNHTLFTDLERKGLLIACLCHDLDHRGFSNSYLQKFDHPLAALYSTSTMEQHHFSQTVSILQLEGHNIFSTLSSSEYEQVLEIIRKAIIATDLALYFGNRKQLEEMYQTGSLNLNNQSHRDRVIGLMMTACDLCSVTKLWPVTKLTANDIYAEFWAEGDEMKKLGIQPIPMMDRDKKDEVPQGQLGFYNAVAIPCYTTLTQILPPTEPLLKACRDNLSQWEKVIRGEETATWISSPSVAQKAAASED
row,IC50 [nM],SMILES
1,15.9,CC1CCCCN1C(=O)c1ncccc1NC(=O)c1nc(C2CC2)cnc1Nc1cncnc1 (centres undefined)
2,1.8,CNC(=O)c1ccc(F)c(F)c1NC(=O)c1nc(C2CC2)cnc1Nc1cncnc1
3,26.8,CN(C(=O)c1ncccc1NC(=O)c1nc(C2CC2)cnc1Nc1cncnc1)C1CC1
4,0.7,CC(C)(O)CNC(=O)c1cc(C#N)ccc1NC(=O)c1nc(C2CC2)cnc1Nc1cncnc1
5,0.5,COCc1ccc(NC(=O)c2nc(C3CC3)cnc2Nc2cncnc2)c(C(=O)NCC(C)(C)O)n1
6,32.2,CN(C)C(=O)c1c(NC(=O)c2nc(C3CC3)cnc2Nc2cncnc2)cnn1C
7,6.6,Cn1ncc(NC(=O)c2nc(C3CC3)cnc2Nc2cncnc2)c1C(=O)NC1COC1
8,1.5,CC(CO)CNC(=O)c1c(NC(=O)c2nc(C3CC3)cnc2Nc2cncnc2)cnn1C (centres undefined)
9,19.3,CNC(=O)c1nc(C)ncc1NC(=O)c1nc(C2CC2)cnc1Nc1cncnc1
10,0.4,CNC(=O)c1cc(NC(C)=O)ccc1NC(=O)c1nc(C2CC2)cnc1Nc1cncnc1
11,8.1,CN(CC(F)(F)F)C(=O)c1ncccc1NC(=O)c1nc(C2CC2)cnc1Nc1cncnc1
12,0.7,COCCOc1ccc(NC(=O)c2nc(C3CC3)cnc2Nc2cncnc2)c(C(=O)NCC(C)(C)O)c1
13,425,CN(C(=O)c1ncccc1NC(=O)c1nc(C2CC2)cnc1Nc1cncnc1)C1CCOCC1
14,27,CNC(=O)c1c(NC(=O)c2nc(C3CC3)cnc2Nc2cncnc2)cnn1CC(F)(F)F
